# Experimental data reported in patent US20240398813A1, “PHARMACEUTICAL COMPOSITION FOR PREVENTING OR TREATING OVERACTIVE BLADDER” (GWANGJU INSTITUTE OF SCIENCE AND TECHNOLOGY, priority 2021, published 2024).
# Target: T1, hyperactive mutant BKCa channels (hSlo G803D/N806K) stably expressed in AD 293 cells (Homo sapiens, UniProt Q12791, G856D/N859K)
# T1 construct: expressed in transfected cells
# Experiment: Cell-based fluorescence assay (FluxOR Potassium Ion Channel Assay) of BKCa channel activation
# Settings: 3 μM
# Method: AD 293 cells, which are derivatives of the commonly used HEK 293 cell line and stably express hyperactive mutant BKCa channels (hSlo G803D/N806K) to sensitively detect the effect (Lee et al., 2013), were cultured in Dulbecco' modified Eagle medium (Hyclone, Logan, Utah, […]) supplemented with 10% fetal bovine serum, and selected with 1 mg/mL Geneticin (Gibco, Amarillo, TX, USA). 20,000 cells per well were seeded on a 96-well clear-bottom black plate (Corning, New York, NY, USA) coated with poly-D-lysine (Gibco). BKCa channel activity was measured using the cell-based fluorescence assay, FluxOR Potassium Ion Channel Assay (Thermo Fisher Scientific, Waltham, MA, USA). Experimental procedures were performed according to the manufacturer's instructions. The cells were treated with test compounds dissolved in assay buffer for 15 minutes. Fluorescence was measured using a FlexStation3 multimode microplate reader (Molecular Devices, Silicon Valley, CA, USA) and SoftMax Pro (Molecular Devices). Excitation and emission wavelengths were set to 485 nm and 528 nm, respectively. Fluorescence signals were acquired every 2 seconds for 120 seconds and normalized by the relative fluorescence unit (RFU). The efficacy of a channel activator was determined by analyzing changes (ΔRFU) in the RFU for 80 seconds after channel stimulation.
# Activation effects of the synthesized compounds on BKCa channels were evaluated using cell-based fluorescence assay. NS11021 was used as the positive control. The effects were determined based on the initial rate (vi) of channel activation and the apparent EC50 value obtained from fitting data of the dose-response curve. Here, Vi means change values for 4 seconds at the start of channel opening (vi={RFU(t=24 s)−RFU(t=20 s)}/4 s). […]
# T1 sequence (Q12791 whole entry G856D/N859K): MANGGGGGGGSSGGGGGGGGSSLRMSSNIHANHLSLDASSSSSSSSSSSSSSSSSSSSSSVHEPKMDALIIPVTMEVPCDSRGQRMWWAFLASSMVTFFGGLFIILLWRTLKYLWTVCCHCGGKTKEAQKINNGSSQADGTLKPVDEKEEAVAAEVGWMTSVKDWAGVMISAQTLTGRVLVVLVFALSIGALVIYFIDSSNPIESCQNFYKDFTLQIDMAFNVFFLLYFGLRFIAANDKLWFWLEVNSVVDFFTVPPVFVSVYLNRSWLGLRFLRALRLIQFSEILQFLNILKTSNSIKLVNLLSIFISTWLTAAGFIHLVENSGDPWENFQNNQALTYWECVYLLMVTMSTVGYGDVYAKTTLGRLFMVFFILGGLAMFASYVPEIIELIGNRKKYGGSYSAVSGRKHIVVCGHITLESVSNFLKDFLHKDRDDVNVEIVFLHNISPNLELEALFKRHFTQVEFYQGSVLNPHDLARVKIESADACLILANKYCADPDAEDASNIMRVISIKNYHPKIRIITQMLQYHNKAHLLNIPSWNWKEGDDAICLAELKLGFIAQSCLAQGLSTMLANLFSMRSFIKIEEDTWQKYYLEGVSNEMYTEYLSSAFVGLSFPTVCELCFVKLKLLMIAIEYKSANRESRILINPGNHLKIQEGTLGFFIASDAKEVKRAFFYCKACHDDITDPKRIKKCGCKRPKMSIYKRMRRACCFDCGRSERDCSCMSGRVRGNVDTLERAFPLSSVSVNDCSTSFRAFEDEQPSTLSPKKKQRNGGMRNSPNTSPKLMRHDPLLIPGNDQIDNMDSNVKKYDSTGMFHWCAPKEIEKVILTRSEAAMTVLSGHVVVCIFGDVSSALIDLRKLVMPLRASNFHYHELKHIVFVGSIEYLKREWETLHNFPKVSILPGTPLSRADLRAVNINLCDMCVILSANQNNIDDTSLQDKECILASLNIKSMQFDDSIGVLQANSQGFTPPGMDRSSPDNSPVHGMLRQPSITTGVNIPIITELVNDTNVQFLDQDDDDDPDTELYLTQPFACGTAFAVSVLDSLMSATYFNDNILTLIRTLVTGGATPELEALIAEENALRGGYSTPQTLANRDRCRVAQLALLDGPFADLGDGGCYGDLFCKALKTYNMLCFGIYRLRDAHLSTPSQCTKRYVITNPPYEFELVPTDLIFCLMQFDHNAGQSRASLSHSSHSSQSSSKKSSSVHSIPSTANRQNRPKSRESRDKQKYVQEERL
row,activation effect on the BKCa channels at a single concentration,SMILES
1,significant activation effects,"O=C(O)c1ccc(Cl)c2c1[nH]c1c3ccc(C(F)(F)F)cc3oc12 [LDD175, reference compound]"

# Target: T1, hyperactive mutant BKCa channels (hSlo G803D/N806K) stably expressed in AD 293 cells
# Experiment: as above
# Settings: compounds at 5 μM; n=3; vehicle 0.26
row,Activity (ΔRFU normalized by activities of LDD175),SMILES
1,0.89,"Cc1ccc2c(c1)c(=O)[nH]c1c(C(=O)Nc3cc(Cl)ccc3C)sc(=S)n12 [TTQC-7, N-(5-chloro-2-methylphenyl)-7-methyl-5-oxo-1-thioxo-4,5-dihydro-1H-thiazolo[3,4-a]quinazoline-3-carboxamide]"
2,0.84,"Cc1ccc(NC(=O)c2sc(=S)n3c2[nH]c(=O)c2cc(Cl)ccc23)c(C)c1 [TTQC-9, 7-chloro-N-(2,4-dimethylphenyl)-5-oxo-1-thioxo-4,5-dihydro-1H-thiazolo[3,4-a]quinazoline-3-carboxamide]"
3,0.63,"COc1ccc(OC)c(NC(=O)c2sc(=S)n3c2[nH]c(=O)c2cc(C)ccc23)c1 [TTQC-18, N-(2,5-dimethoxyphenyl)-7-methyl-5-oxo-1-thioxo-4,5-dihydro-1H-thiazolo[3,4-a]quinazoline-3-carboxamide]"
4,0.64,"COc1cc2c(=O)[nH]c3c(C(=O)Nc4cc(Cl)ccc4C)sc(=S)n3c2cc1OC [TTQC-17, N-(5-chloro-2-methylphenyl)-7,8-dimethoxy-5-oxo-1-thioxo-4,5-dihydro-1H-thiazolo[3,4-a]quinazoline-3-carboxamide]"
5,0.49,"O=C(Nc1ccc(Br)cc1F)c1sc(=S)n2c1[nH]c(=O)c1ccc(Cl)cc12 [TTQC-26, N-(4-bromo-2-fluorophenyl)-8-chloro-5-oxo-1-thioxo-4,5-dihydro-1H-thiazolo[3,4-a]quinazoline-3-carboxamide]"
6,0.76,"Cc1ccc(CNC(=O)c2sc(=S)n3c2[nH]c(=O)c2cc(Br)ccc23)cc1 [TTQC-14, 7-bromo-N-(4-methylbenzyl)-5-oxo-1-thioxo-4,5-dihydro-1H-thiazolo[3,4-a]quinazoline-3-carboxamide]"
7,0.71,"COc1ccc(OC)c(NC(=O)c2sc(=S)n3c2[nH]c(=O)c2cc(Br)ccc23)c1 [TTQC-15, 7-bromo-N-(2,5-dimethoxyphenyl)-5-oxo-1-thioxo-4,5-dihydro-1H-thiazolo[3,4-a]quinazoline-3-carboxamide]"
8,0.90,"COc1ccccc1NC(=O)c1sc(=S)n2c1[nH]c(=O)c1cc(Cl)ccc12 [TTQC-5, 7-chloro-N-(2-methoxyphenyl)-5-oxo-1-thioxo-4,5-dihydro-1H-thiazolo[3,4-a]quinazoline-3-carboxamide]"
9,0.45,"CCOc1ccccc1NC(=O)c1sc(=S)n2c1[nH]c(=O)c1cc(Cl)ccc12 [TTQC-28, 7-chloro-N-(2-ethoxyphenyl)-5-oxo-1-thioxo-4,5-dihydro-1H-thiazolo[3,4-a]quinazoline-3-carboxamide]"
10,0.34,"Cc1ccc(NC(=O)c2sc(=S)n3c2[nH]c(=O)c2cc(C)ccc23)c(C)c1 [TTQC-31, N-(2,4-dimethylphenyl)-7-methyl-5-oxo-1-thioxo-4,5-dihydro-1H-thiazolo[3,4-a]quinazoline-3-carboxamide]"
11,0.83,"Cc1ccc(NC(=O)c2sc(=S)n3c2[nH]c(=O)c2cc(Br)ccc23)c(C)c1 [TTQC-10, 7-bromo-N-(2,4-dimethylphenyl)-5-oxo-1-thioxo-4,5-dihydro-1H-thiazolo[3,4-a]quinazoline-3-carboxamide]"

# The next lines start with the compound.
row,SMILES,Activity (ΔRFU normalized by activities of LDD175)
1,"CC(C)NC(=O)c1sc(=S)n2c1[nH]c(=O)c1cc(Br)ccc12 [TTQC-6, 7-bromo-N-isopropyl-5-oxo-1-thioxo-4,5-dihydro-1H-thiazolo[3,4-a]quinazoline-3-carboxamide]",0.90
2,"COc1cc2c(=O)[nH]c3c(C(=O)Nc4ccccc4)sc(=S)n3c2cc1OC [TTQC-22, 7,8-dimethoxy-5-oxo-N-phenyl-1-thioxo-4,5-dihydro-1H-thiazolo[3,4-a]quinazoline-3-carboxamide]",0.57
3,"O=C(NCC1CCCO1)c1sc(=S)n2c1[nH]c(=O)c1cc(Cl)ccc12 (stereo not drawn) [TTQC-27, 7-chloro-5-oxo-N-((tetrahydrofuran-2-yl)methyl)-1-thioxo-4,5-dihydro-1H-thiazolo[3,4-a]quinazoline-3-carboxamide]",0.47
4,"COC(=O)c1ccc2c(=O)[nH]c3c(C(=O)Nc4ccc(F)cc4F)sc(=S)n3c2c1 [TTQC-13, methyl 3-((2,4-difluorophenyl)carbamoyl)-5-oxo-1-thioxo-4,5-dihydro-1H-thiazolo[3,4-a]quinazoline-8-carboxylate]",0.79
5,"CCc1ccccc1NC(=O)c1sc(=S)n2c1[nH]c(=O)c1ccc(Cl)cc12 [TTQC-4, 8-chloro-N-(2-ethylphenyl)-5-oxo-1-thioxo-4,5-dihydro-1H-thiazolo[3,4-a]quinazoline-3-carboxamide]",0.95
6,"O=C(NC1CCCC1)c1sc(=S)n2c1[nH]c(=O)c1ccc(Cl)cc12 [TTQC-23, 8-chloro-N-cyclopentyl-5-oxo-1-thioxo-4,5-dihydro-1H-thiazolo[3,4-a]quinazoline-3-carboxamide]",0.55
7,"COC(=O)c1ccc2c(=O)[nH]c3c(C(=O)Nc4cccc(F)c4)sc(=S)n3c2c1 [TTQC-2, methyl 3-((3-fluorophenyl)carbamoyl)-5-oxo-1-thioxo-4,5-dihydro-1H-thiazolo[3,4-a]quinazoline-8-carboxylate]",0.99
8,"O=C(NCc1ccccc1Cl)c1sc(=S)n2c1[nH]c(=O)c1cc(Br)ccc12 [TTQC-20, 7-bromo-N-(2-chlorobenzyl)-5-oxo-1-thioxo-4,5-dihydro-1H-thiazolo[3,4-a]quinazoline-3-carboxamide]",0.62
9,"COC(=O)c1ccc2c(=O)[nH]c3c(C(=O)NCc4ccccc4Cl)sc(=S)n3c2c1 [TTQC-8, methyl 3-((2-chlorobenzyl)carbamoyl)-5-oxo-1-thioxo-4,5-dihydro-1H-thiazolo[3,4-a]quinazoline-8-carboxylate]",0.84
10,"O=C(c1sc(=S)n2c1[nH]c(=O)c1cc(Br)ccc12)N1CCCCC1 [TTQC-30, 7-bromo-3-(piperidine-1-carbonyl)-1-thioxo-1H-thiazolo[3,4-a]quinazolin-5(4H)-one]",0.37
11,"CNC(=O)c1sc(=S)n2c1[nH]c(=O)c1ccc(Cl)cc12 [TTQC-25, 8-chloro-N-methyl-5-oxo-1-thioxo-4,5-dihydro-1H-thiazolo[3,4-a]quinazoline-3-carboxamide]",0.50
12,"O=C(O)c1ccc(Cl)c2c1[nH]c1c3ccc(C(F)(F)F)cc3oc12 [LDD175, reference compound]",1.00
13,"O=C(NCc1ccccc1Cl)c1sc(=S)n2c1[nH]c(=O)c1cc(Cl)ccc12 [TTQC-21, 7-chloro-N-(2-chlorobenzyl)-5-oxo-1-thioxo-4,5-dihydro-1H-thiazolo[3,4-a]quinazoline-3-carboxamide]",0.60
14,"COc1ccc(OC)c(NC(=O)c2sc(=S)n3c2[nH]c(=O)c2ccc(Cl)cc23)c1 [TTQC-34, 8-chloro-N-(2,5-dimethoxyphenyl)-5-oxo-1-thioxo-4,5-dihydro-1H-thiazolo[3,4-a]quinazoline-3-carboxamide]",0.31
15,"Cc1ccc(Cl)cc1NC(=O)c1sc(=S)n2c1[nH]c(=O)c1cc3c(cc12)OCO3 [TTQC-12, N-(5-chloro-2-methylphenyl)-5-oxo-1-thioxo-4,5-dihydro-1H-[1,3]dioxolo[4,5-g]thiazolo[3,4-a]quinazoline-3-carboxamide]",0.81
16,"O=C(NCC1CCCO1)c1sc(=S)n2c1[nH]c(=O)c1cc(Br)ccc12 (stereo not drawn) [TTQC-16, 7-bromo-5-oxo-N-((tetrahydrofuran-2-yl)methyl)-1-thioxo-4,5-dihydro-1H-[1,3]thiazolo[3,4-a]quinazoline-3-carboxamide]",0.64
17,"COc1cccc(CNC(=O)c2sc(=S)n3c2[nH]c(=O)c2ccc(Cl)cc23)c1 [TTQC-29, 8-chloro-N-(3-methoxybenzyl)-5-oxo-1-thioxo-4,5-dihydro-1H-thiazolo[3,4-a]quinazoline-3-carboxamide]",0.45
18,"CCOC(=O)c1ccc(NC(=O)c2sc(=S)n3c2[nH]c(=O)c2ccc(Cl)cc23)cc1 [TTQC-3, ethyl 4-(8-chloro-5-oxo-1-thioxo-4,5-dihydro-1H-thiazolo[3,4-a]quinazoline-3-carboxamido)benzoate]",0.96
